Measurements: US12029217B2, “Safened compositions comprising pyridine carboxylate herbicides and isoxadifen” (Corteva Agriscience LLC, priority 2018, dated 2024)

Tests used:
Assay type in all cases: in vivo
[1] = system: Salsola kali (Russian thistle); experiment: Greenhouse postemergence visual injury, Russian thistle (SASKR); conditions: Example 1
Text: (§1) Seeds of the desired test plant species were planted in a 90:10% v/v (volume/volume) mixture of PRO-MIX® BX (Premier Tech Horticulture, Quakertown, PA, USA) and PROFILE® GREENS GRADE™ (Profile Products LLC, Buffalo Grove, IL, USA) planting mixture, which typically has a pH of 5.2 to 6.2 and an organic matter content of at least 50 percent, in plastic pots with a surface area of 103.2 square centimeters (cm^2). When required to ensure good germination and healthy plants, a fungicide treatment and/or other chemical or physical treatment was applied. The plants were grown for 7-36 days (d) in a greenhouse with an approximate 14-hour (h) photo-period which was maintained at about 23° C. during the day and 22° C. during the night. Nutrients and water were added on a regular basis and supplemental lighting was provided with overhead metal halide 1000-Watt lamps as necessary. The plants were employed for testing when they reached the second or third true leaf stage.
(§2) Emulsifiable concentrates of each of each pyridine carboxylate herbicide (Compound A or Compound B) were prepared at 100 grams acid equivalent per liter (g ae/L). An aliquot of each emulsifiable concentrate was placed in a 25 mL glass vial and diluted with an aqueous mixture of 1.25% (v/v) ACTIROB® B esterified rapeseed oil (Bayer Crop Science, Research Triangle Park, NC, USA) or MSO® Concentrate with LECI-TECH® methylated soybean oil (Loveland Products, Loveland, CO, USA) to obtain concentrated stock solutions at the highest application rate for each herbicide, based upon a 12 milliliter (mL) application volume at a rate of 187 liters per hectare (L/ha). The concentrated stock solutions were further diluted with an aqueous mixture of 1.25% v/v ACTIROB® B or MSO® Concentrate with LECI-TECH® to obtain stock solutions at reduced application rates for each herbicide. Spray solutions of the herbicide combinations (Compound A or Compound B plus safener) were prepared by adding weighed amounts or aliquots of the safener to the stock solutions of Compound A or Compound B to form 12-mL spray solutions in two-way combinations.
(§3) The spray solutions were applied to the plant material with an overhead Mandel track sprayer equipped with 8002E nozzles calibrated to deliver 187 L/ha over an application area of 0.503 square meters (m^2) at a spray height of 18 inches (43 centimeters (cm)) above the average plant canopy. […]
(§4) The treated plants and control plants were placed in a greenhouse as described above and watered by sub-irrigation to prevent wash-off of the test compounds. After 20-22 d, the condition of the test plants as compared with that of the control plants was determined visually and scored on a scale of 0 to 100 percent where 0 corresponds to no injury and 100 corresponds to complete kill.

[2] = system: Triticum aestivum (winter wheat); experiment: Greenhouse postemergence visual injury, winter wheat (TRZAW)
Text: as §1, §2
(§5) The spray solutions were applied to the plant material with an overhead Mandel track sprayer equipped with 8002E nozzles calibrated to deliver 187 L/ha over an application area of 0.503 square meters (m^2) at a spray height of 18 inches (43 centimeters (cm)) above the average plant canopy. Control plants were sprayed in the same manner with the solvent blank. All herbicide (component a) application rates are given as “g ae/ha” and all safener (component b) application rates are given as “g ai/ha.”
as §4

[3] = system: Saccharum officinarum (sugarcane); experiment: Greenhouse postemergence visual injury, sugarcane (SACOF); conditions: Example 3
Text: as §1, §2, §5, §4

[4] = system: Cyperus esculentus (nutsedge); experiment: Greenhouse postemergence visual injury, nutsedge (CYPES)
Text: as §1, §2, §5, §4

[5] = system: Abutilon theophrasti (velvetleaf); experiment: Greenhouse postemergence visual injury, velvetleaf (ABUTH); conditions: Example 6
Text: as §1, §2, §3, §4

[6] = system: Alopecurus myosuroides (blackgrass); experiment: Greenhouse postemergence visual injury, blackgrass (ALOMY); conditions: Example 6
Text: as §1, §2, §3, §4

[7] = system: Cirsium arvense (Canada thistle); experiment: Greenhouse postemergence visual injury, Canada thistle (CIRAR); conditions: Example 6
Text: as §1, §2, §3, §4

[8] = system: Digitaria sanguinalis (large crabgrass); experiment: Greenhouse postemergence visual injury, large crabgrass (DIGSA)
Text: as §1, §2, §5, §4

[9] = system: Erigeron canadensis (Canada horseweed); experiment: Greenhouse postemergence visual injury, Canada horseweed (ERICA)
Text: as §1, §2, §5, §4

[10] = system: Glycine max (soybean); experiment: Greenhouse postemergence visual injury, soybean (GLXMA)
Text: as §1, §2, §5, §4

[11] = system: Ipomoea hederacea (ivyleaf morningglory); experiment: Greenhouse postemergence visual injury, ivyleaf morningglory (IPOHE); conditions: Example 6
Text: as §1, §2, §3, §4

[12] = system: Kochia scoparia (kochia); experiment: Greenhouse postemergence visual injury, kochia (KCHSC); conditions: Example 6
Text: as §1, §2, §3, §4

[13] = system: Kochia scoparia (herbicide-resistant kochia); experiment: Greenhouse postemergence visual injury, herbicide-resistant kochia (KCHSC-R); conditions: Example 6
Text: as §1, §2, §3, §4

[14] = system: Leptochloa chinensis (Chinese sprangletop); experiment: Greenhouse postemergence visual injury, Chinese sprangletop (LEFCH); conditions: Example 6
Text: as §1, §2, §3, §4

[15] = system: Polygonum convolvulus (wild buckwheat); experiment: Greenhouse postemergence visual injury, wild buckwheat (POLCO); conditions: Example 6
Text: as §1, §2, §3, §4

[16] = system: Setaria faberi (giant foxtail); experiment: Greenhouse postemergence visual injury, giant foxtail (SETFA)
Text: as §1, §2, §5, §4

[17] = system: Sorghum halepense (Johnson grass); experiment: Greenhouse postemergence visual injury, Johnson grass (SORHA)
Text: as §1, §2, §5, §4

[18] = system: Viola tricolor (wild pansy); experiment: Greenhouse postemergence visual injury, wild pansy (VIOTR); conditions: Example 6
Text: as §1, §2, §3, §4

[19] = system: Amaranthus palmeri (glyphosate-resistant Palmer amaranth); experiment: Greenhouse postemergence visual injury, glyphosate-resistant Palmer amaranth (AMAPA-Gly); conditions: Example 7
Text: as §1, §2, §3, §4

[20] = system: Eleusine indica (goosegrass); experiment: Greenhouse postemergence visual injury, goosegrass (ELEIN); conditions: Example 7
Text: as §1, §2, §3, §4

[21] = isoxadifen-ethyl 20 g/ha, Example 6
[22] = isoxadifen-ethyl 40 g/ha, Example 6
[23] = isoxadifen-ethyl 80 g/ha, Example 6
[24] = isoxadifen-ethyl 10 g/ha, Example 7
[25] = isoxadifen-ethyl 20 g/ha, Example 7

Measured: % visual injury, Ob

CCOC(=O)C1=NOC(c2ccccc2)(c2ccccc2)C1 [Isoxadifen-ethyl, isoxadifen-ethyl]
0%: [1]; isoxadifen-ethyl 10 g/ha | [1]; isoxadifen-ethyl 20 g/ha | [1]; isoxadifen-ethyl 40 g/ha | [2]; isoxadifen-ethyl 20 g/ha, Example 2 | [2]; [21] | [2]; isoxadifen-ethyl 40 g/ha, Example 2 | [2]; [22] | [2]; isoxadifen-ethyl 80 g/ha, Example 2 | [2]; [23] | [2]; isoxadifen-ethyl 120 g/ha, Example 2 | [3]; isoxadifen-ethyl 10 g/ha | [3]; isoxadifen-ethyl 20 g/ha | [3]; isoxadifen-ethyl 40 g/ha | [3]; isoxadifen-ethyl 80 g/ha | [4]; isoxadifen-ethyl 20 g/ha, Example 4 | [4]; isoxadifen-ethyl 20 g/ha, Example 5 | [4]; [21] | [4]; isoxadifen-ethyl 40 g/ha, Example 4 | [4]; isoxadifen-ethyl 40 g/ha, Example 5 | [4]; [22] | [4]; isoxadifen-ethyl 80 g/ha, Example 4 | [4]; isoxadifen-ethyl 80 g/ha, Example 5 | [4]; [23] | [4]; isoxadifen-ethyl 120 g/ha, Example 4 | [4]; isoxadifen-ethyl 120 g/ha, Example 5 | [5]; isoxadifen-ethyl 20 g/ha | [5]; isoxadifen-ethyl 40 g/ha | [5]; isoxadifen-ethyl 80 g/ha | [6]; isoxadifen-ethyl 20 g/ha | [6]; isoxadifen-ethyl 40 g/ha | [6]; isoxadifen-ethyl 80 g/ha | [7]; isoxadifen-ethyl 20 g/ha | [7]; isoxadifen-ethyl 40 g/ha | [7]; isoxadifen-ethyl 80 g/ha | [8]; [24] | [8]; [21] | [8]; [25] | [8]; [22] | [8]; [23] | [9]; [24] | [9]; [21] | [9]; [25] | [9]; [22] | [9]; [23] | [10]; [24] | [10]; [21] | [10]; [25] | [10]; [22] | [10]; [23] | [11]; isoxadifen-ethyl 20 g/ha | [11]; isoxadifen-ethyl 40 g/ha | [11]; isoxadifen-ethyl 80 g/ha | [12]; isoxadifen-ethyl 20 g/ha | [12]; isoxadifen-ethyl 40 g/ha | [12]; isoxadifen-ethyl 80 g/ha | [13]; isoxadifen-ethyl 20 g/ha | [13]; isoxadifen-ethyl 40 g/ha | [13]; isoxadifen-ethyl 80 g/ha | [14]; isoxadifen-ethyl 20 g/ha | [14]; isoxadifen-ethyl 40 g/ha | [14]; isoxadifen-ethyl 80 g/ha | [15]; isoxadifen-ethyl 20 g/ha | [15]; isoxadifen-ethyl 40 g/ha | [15]; isoxadifen-ethyl 80 g/ha | [16]; [24] | [16]; [21] | [16]; [25] | [16]; [22] | [16]; [23] | [17]; [24] | [17]; [21] | [17]; [25] | [17]; [22] | [17]; [23] | [18]; isoxadifen-ethyl 20 g/ha | [18]; isoxadifen-ethyl 40 g/ha | [18]; isoxadifen-ethyl 80 g/ha | [19]; isoxadifen-ethyl 10 g/ha | [19]; isoxadifen-ethyl 20 g/ha | [20]; isoxadifen-ethyl 10 g/ha | [20]; isoxadifen-ethyl 20 g/ha
